Assay results taken from ChEMBL document CHEMBL1133316, “Synthesis and antiviral activity of acyclovir-5'-(phenyl methoxy alaninyl) phosphate as a possible membrane-soluble nucleotide prodrug” (Bioorg Med Chem Lett, 2000).

Legend:
Vero [1] = assay: Compound was tested for inhibition against herpes simplex virus (HSV-2) infected vero cells; type: functional, cell-based; details: Chlorocebus sabaeus
Vero [2] = assay: Compound was tested for cytotoxic activity uninfected vero cells; type: functional; details: Chlorocebus sabaeus
MRC5 [3] = assay: Compound was tested for inhibition against human cytomegalovirus (HCMV) in MRC-5 cells; type: functional, cell-based
MRC5 [4] = assay: Compound was tested for inhibition against Varicella zoster virus(VZV) infected MRC5 cells; type: functional, cell-based; details: Homo sapiens
MRC5 [5] = assay: Compound was tested for inhibition against varicella zoster virus(VZV) infected MRC5 cells; details: Homo sapiens

Work on `COC(=O)C(C)NP(=O)(OCCOCn1cnc2c(O)nc(N)nc21)Oc1ccccc1` (stereo not drawn) yielded an EC50 (Vero [1]) greater than 100 µM, a CC50 (Vero [2]) greater than 5 µM and an EC50 (MRC5 [3]) of 12 µM. The EC50 (MRC5 [4]) was 16 µM.
`Nc1nc2c(ncn2COCCO)c(=O)[nH]1` [ACYCLOVIR] showed an EC50 (Vero [1]) of 3 µM, an EC50 (MRC5 [5]) of 5 µM and a CC50 (Vero [2]) greater than 5 µM. For the same compound, the EC50 (MRC5 [3]) was 50 µM.
